The text below walks through data of US7452904B2, “1-alkyl-1-azoniabicyclo' 2.2.2 octane carbamate derivatives and their use as muscarinic receptor antagonists” (Chiesi Farmaceutici S.p.A., priority 2001, dated 2008).

The target in one assay is T1, human M3 receptors (Homo sapiens, UniProt P20309).
T1 construct: expressed in transfected cells; host or cells: CHO-K1
Briefly: Binding test to human M3 muscarinic receptor ([3H]-NMS displacement). To be noted: membranes from CHO-K1 cells transfected with human M3 receptor; [3H]-NMS 0.3-0.5 nM, 60 min, 25° C.; mean of two independent experiments, each in duplicate. On the procedure: (§1) Binding Test to Human M2 and M3 Muscarinic Receptors
(§2) Membranes from CHO—K1 cells transfected with human M2 or M3 receptors were used. The summarised experimental procedure for both receptors was the following: cell membranes (15-20 μg) were incubated with [^3H]-NMS (0.3-0.5 nM) for 60 min at 25° C., in presence or absence of the antagonists. Incubation was carried out in 96 wells polystyrene microplates in a total incubation volume of 0.2 mL of PBS pH 7.4. Non specific binding was determined in parallel assays in presence of atropine (5 μM). Samples were filtered through type GF/C glass fibre, preincubated with PEI 0.3%. Filters were washed 3-4 times with 50 mM Tris-HCl, 0.9% NaCl, pH 7.4 at 4° C., and dried at 50° C. for 45 min. Filter bound radioactivity was quantified by liquid scintillation counting.
(§3) For the calculation of the inhibition constant (Ki), displacement curves were analysed by non-linear regression (GraphPad Prism). Dissociation constant (Kd) of [^3H]-NMS for each receptor was obtained through the saturation curves obtained in the same conditions as the experiments carried out with the corresponding antagonists.

The next assay addresses T2, human M2 receptors (Homo sapiens, UniProt P08172).
T2 construct: expressed in transfected cells; host or cells: CHO-K1
T2 sequence (P08172 1-466): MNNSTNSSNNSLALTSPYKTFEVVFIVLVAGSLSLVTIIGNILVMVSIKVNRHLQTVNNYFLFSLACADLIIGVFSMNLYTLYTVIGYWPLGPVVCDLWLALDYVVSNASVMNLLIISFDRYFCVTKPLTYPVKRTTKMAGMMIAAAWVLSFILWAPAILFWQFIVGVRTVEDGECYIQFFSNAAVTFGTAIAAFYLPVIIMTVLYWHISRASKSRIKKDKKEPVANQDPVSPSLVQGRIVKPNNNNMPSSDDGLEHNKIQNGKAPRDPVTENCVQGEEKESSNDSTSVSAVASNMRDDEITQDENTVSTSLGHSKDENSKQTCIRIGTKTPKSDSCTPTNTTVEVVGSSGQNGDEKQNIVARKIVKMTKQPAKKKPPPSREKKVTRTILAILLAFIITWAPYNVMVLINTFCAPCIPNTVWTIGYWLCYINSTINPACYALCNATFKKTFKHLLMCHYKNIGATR
Briefly: Binding test to human M2 muscarinic receptor ([3H]-NMS displacement), reported as M2/M3 selectivity. To be noted: ratio of Ki at cloned human M2 versus M3 receptors; ratios greater than 1 indicate M3 selective activity. On the procedure: as §1, §2, §3

T1 sequence (P20309 whole entry): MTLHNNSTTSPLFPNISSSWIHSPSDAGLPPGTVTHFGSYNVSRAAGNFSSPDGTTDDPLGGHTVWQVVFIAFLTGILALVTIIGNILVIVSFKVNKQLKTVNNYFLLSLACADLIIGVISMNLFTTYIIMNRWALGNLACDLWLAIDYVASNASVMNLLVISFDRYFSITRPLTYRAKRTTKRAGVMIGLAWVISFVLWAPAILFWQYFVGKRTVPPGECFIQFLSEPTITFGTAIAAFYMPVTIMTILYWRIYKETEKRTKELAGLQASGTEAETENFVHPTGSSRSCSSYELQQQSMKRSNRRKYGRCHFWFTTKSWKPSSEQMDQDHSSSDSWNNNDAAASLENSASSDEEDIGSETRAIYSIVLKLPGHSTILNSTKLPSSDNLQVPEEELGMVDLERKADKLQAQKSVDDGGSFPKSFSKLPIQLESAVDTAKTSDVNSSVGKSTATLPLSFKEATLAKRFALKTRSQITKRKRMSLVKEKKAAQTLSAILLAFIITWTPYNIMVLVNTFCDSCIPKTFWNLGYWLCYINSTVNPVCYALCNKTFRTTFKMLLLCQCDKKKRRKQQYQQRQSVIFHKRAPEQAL

As a reminder, the Ki is a dissociation constant, usually derived from enzyme kinetics or from competition with a known ligand. `O=C(O[C@H]1CN2CCC1CC2)N1CCc2ccccc2[C@@H]1c1ccccc1` [SOLIFENACIN, solifenacin, reference compound] gave a Ki on human M3 receptors of 8.3 nM. The “M2/M3 (ratio)” value at human M2 receptors is reported as 10 ratio.
In turn, `Cl.O=C(O[C@H]1CN2CCC1CC2)N(Cc1ccc(Cl)s1)c1cccc(F)c1` [Int. 29, (R)-(5-Chlorothiophen-2-ylmethyl)-(3-fluorophenyl)carbamic acid 1-azabicyclo[2.2.2]oct-3-yl ester; hydrochloride] registered a Ki at human M3 receptors of 0.02 nM. At human M2 receptors, the “M2/M3 (ratio)” value was found to be 105 ratio.
For `O=C(C[N+]12CCC(CC1)[C@@H](OC(=O)N(Cc1ccsc1)c1cccc(F)c1)C2)c1ccccc1.[Br-]` [Ex. 69, (R)-3-[(3-Fluorophenyl)thiophen-3-ylmethylcarbamoyloxy]-1(2-oxo-2-phenylethyl)-1-azoniabicyclo[2.2.2]octane; bromide] the same measures were 0.02 nM and 32 ratio.
`O=C(O[C@H]1C[N+]2(CCSc3ccccc3)CCC1CC2)N(Cc1cc(F)c(F)c(F)c1)c1ccccc1F.[Cl-]` [Ex. 50, (R)-3-[(2-Fluorophenyl)-(3,4,5-trifluorobenzyl)carbamoyloxy]-1-(2-phenylsulfanylethyl)-1-azoniabicyclo[2.2.2]octane; chloride] gave a Ki on human M3 receptors of 0.06 nM. Moreover, the “M2/M3 (ratio)” value at human M2 receptors came to 345 ratio.
`Cc1cccc(N(Cc2ccsc2)C(=O)O[C@H]2CN3CCC2CC3)c1.Cl` [Int. 32, (R)-Thiophen-3-ylmethyl-m-tolylcarbamic acid 1-azabicyclo[2.2.2]oct-3-yl ester; hydrochloride] returned an inhibition constant (Ki) at human M3 receptors of 0.15 nM. At human M2 receptors, the “M2/M3 (ratio)” value amounted to 23 ratio.
On the same counts, the results for `O=C(O[C@H]1C[N+]2(CCCOc3ccccc3)CCC1CC2)N(Cc1ccc(F)cc1)c1ccccc1.[Br-]` [Ex. 11, (R)-3-[(4-Fluorobenzyl)phenylcarbamoyloxy]-1-(3-phenoxypropyl)-1-azoniabicyclo[2.2.2]octane; bromide] are 0.34 nM and 80 ratio.
